Measurements reported in article PMC9841523 (Journal of Medicinal Chemistry, 2022).

Assays:
p-P70S6K Thr389 = assay: AlphaLISA/MSD analysis of S6K phosphorylation in MDA-MB-468 cells; assay type: cell-based; conditions: MDA-MB-468 cells
Procedure: (§1) Cell culture and reagents. Cells were obtained from ATCC, grown in appropriate medium supplemented with 10% fetal bovine serum and 1% penicillin/streptomycin and maintained at 37 °C in a humidified incubator at 5% CO 2.
(§2) AlphaLISA and MesoScale Discovery (MSD) analysis of 4EBP1, S6K and AKT phosphorylation. mTOR substrate phosphorylation in MDA-MB-468 cells was assayed using AlphaLISA SureFire Ultra kits for p4EBP1 Thr37/46, p-P70S6K Thr389 and p-AKT1/2/3 Ser473 (PerkinElmer), and MSD Multi-Array Assay Systems for Phospho-4EBP1 (Thr37/46) and Phospho-AKT (Ser473) (MSD). Cells were seeded at 25,000 cells per well and exposed the next day to serial three-fold dilutions of compounds in complete medium with 0.1% dimethylsulfoxide (DMSO). After indicated incubation times, cells were lysed and AlphaLISA or MSD performed according to the manufacturers’ protocols. Samples were read using an EnVision Multilabel Plate Reader (PerkinElmer) using standard AlphaLISA settings or using an MSD plate reader. Data were plotted as a function of logM [compound] with a sigmoidal concentration response (variable slope) model fitted to the data to estimate the inhibitor half-maximum effective concentration (EC 50) in Prism 7 (GraphPad). Alternatively, results were analyzed as percentage of control in which 0% was set as signal from 1 μM Torin1 and 100% was set as the mean of DMSO wells on each plate, and inhibitor EC 50 was estimated as described

[1] = system: 4EBP1 T37/T46 phosphorylation (mTORC1); assay: AlphaLISA/MSD analysis of 4EBP1 phosphorylation in MDA-MB-468 cells; assay type: cell-based; conditions: Homo sapiens; MDA-MB-468 cells; read-out: p4EBP1 IC50
Procedure: as §1, §2

[2] = system: AKT S473 phosphorylation (mTORC2); assay: AlphaLISA/MSD analysis of AKT phosphorylation in MDA-MB-468 cells; assay type: cell-based; conditions: Homo sapiens; MDA-MB-468 cells; read-out: pAKT IC50
Procedure: as §1, §2

FKBP12 = target: T1, FKBP12 (Homo sapiens, UniProt P62942); assay: FKBP12 binding affinity, fluorescent probe displacement assay
T1 construct: Proteros biostructures GmbH (ran the assay)
T1 sequence (P62942 whole entry): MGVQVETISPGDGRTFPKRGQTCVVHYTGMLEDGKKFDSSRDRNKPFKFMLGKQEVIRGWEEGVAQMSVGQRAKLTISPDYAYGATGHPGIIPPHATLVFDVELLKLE
Procedure: Thermo Fisher Scientific catalog no. A15112) in 50 mM HEPES pH 7.5, 0.01% polysorbate 20, 1 mM EGTA and 10 mM MnCl 2. Compounds were diluted in DMSO, and assay was initiated by mixing 160 nl of compound with 16 μL of assay mixture, resulting in a final DMSO
concentration of 1%. Reactions were mixed for 30 s on an orbital shaker and incubated for 1 h at

FKBP12-FRB = target: T2, FKBP12-FRB (Homo sapiens, UniProt P42345+P62942); assay: TR-FRET ternary complex assay; assay type: binding; conditions: at the assay detection limit
T2 construct: human mTOR (residues 1360-2549); purchased Thermo Fisher Scientific (ran the assay)
T2 sequence (P62942 whole entry, the tested form may be a part): as the sequence (P62942 whole entry) above
T2 sequence (P42345 1360-2549 limits assumed): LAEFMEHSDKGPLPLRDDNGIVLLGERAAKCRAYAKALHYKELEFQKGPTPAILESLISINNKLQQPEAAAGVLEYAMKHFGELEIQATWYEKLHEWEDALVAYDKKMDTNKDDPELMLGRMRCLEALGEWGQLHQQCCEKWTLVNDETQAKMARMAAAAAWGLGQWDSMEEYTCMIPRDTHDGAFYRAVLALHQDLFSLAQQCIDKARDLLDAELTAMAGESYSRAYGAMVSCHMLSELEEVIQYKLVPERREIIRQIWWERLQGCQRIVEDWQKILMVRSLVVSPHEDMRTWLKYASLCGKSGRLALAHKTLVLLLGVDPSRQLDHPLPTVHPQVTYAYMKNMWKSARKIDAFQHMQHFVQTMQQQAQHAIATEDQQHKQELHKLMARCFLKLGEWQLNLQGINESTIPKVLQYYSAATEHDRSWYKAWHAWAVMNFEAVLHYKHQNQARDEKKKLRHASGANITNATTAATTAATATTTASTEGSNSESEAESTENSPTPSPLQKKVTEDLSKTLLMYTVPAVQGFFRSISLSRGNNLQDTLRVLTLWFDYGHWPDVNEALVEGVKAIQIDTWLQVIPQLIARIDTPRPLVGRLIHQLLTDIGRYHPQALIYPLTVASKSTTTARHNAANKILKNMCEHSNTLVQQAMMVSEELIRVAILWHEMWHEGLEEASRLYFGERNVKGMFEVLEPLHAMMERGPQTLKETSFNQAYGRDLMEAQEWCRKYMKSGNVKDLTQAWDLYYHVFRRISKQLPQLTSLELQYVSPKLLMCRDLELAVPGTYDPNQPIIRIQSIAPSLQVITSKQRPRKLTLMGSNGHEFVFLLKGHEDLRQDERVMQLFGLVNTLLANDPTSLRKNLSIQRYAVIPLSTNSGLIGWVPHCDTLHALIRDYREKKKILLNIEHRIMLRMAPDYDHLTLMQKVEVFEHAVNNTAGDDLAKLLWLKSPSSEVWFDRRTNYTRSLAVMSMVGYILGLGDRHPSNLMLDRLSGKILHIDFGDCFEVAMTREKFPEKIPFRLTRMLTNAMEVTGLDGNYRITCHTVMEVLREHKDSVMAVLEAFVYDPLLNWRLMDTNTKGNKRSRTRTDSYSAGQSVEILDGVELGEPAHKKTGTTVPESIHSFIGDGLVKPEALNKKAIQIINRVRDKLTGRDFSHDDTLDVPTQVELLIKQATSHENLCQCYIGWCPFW
Procedure: Proteros biostructures GmbH, using a fluorescent probe displacement assay. […]
same conditions, with 6 nM fluorescent probe present. 50 nL compound in DMSO was added to […]
11 different concentrations of compound with a 3-fold dilution factor were tested. After a 6 h incubation at room temperature acceptor fluorescence was read on a plate reader. […]
displacement) were calculated using standard fitting algorithms. The reporter probe is used at a concentration reflecting the tenfold concentration of its own Kd (probe) value. Thus, according to the Cheng Prusoff equation, the Kd value can be calculated with Kd = IC 50 / (1 + (([10 x Kd probe]) / [Kd probe]) = IC 50 / 11.
TR–FRET ternary complex assay. Assay was performed by Thermo Fisher Scientific, using a modification of a previously described protocol. 1 A homogeneous assay mixture was prepared […]
Thermo Fisher Scientific catalog no. A15112) in 50 mM HEPES pH 7.5, 0.01% polysorbate 20, 1 mM EGTA and 10 mM MnCl 2. […]
Nanosyn Lipid Kinase screen. Biochemical inhibition of lipid and related protein kinases was determined by Nanosyn (Santa Clara, CA). […]
was determined by detection of fluorescent substrates using a microfluidic electrophoresis mobility shift assay with a LabChip3000 instrument (Caliper/PerkinElmer). […]

Candida albicans = conditions: 10 strains of yeast Candida albicans; cited from earlier work

CO[C@H]1C[C@@H]2CC[C@@H](C)[C@@](O)(O2)C(=O)C(=O)N2CCCC[C@H]2C(=O)O[C@H]([C@H](C)C[C@@H]2CC[C@@H](O)[C@H](OC)C2)C[C@@H](OC)[C@H](C)/C=C(\C)[C@@H](O)[C@@H](OC)C(=O)[C@H](C)C[C@H](C)/C=C/C=C/C=C/1C [compound 12, C32-methoxy rapamycin]
IC50 (p-P70S6K Thr389; Homo sapiens, read-out: pS6K IC50): 0.00037 µM | decrease in potency (pS6K) relative to rapamycin 1 (p-P70S6K Thr389): 6 fold | IC50 [1]: > 1 µM | IC50 [2]: > 1 µM | Kd (FKBP12): 0.701 µM | decrease in affinity for FKBP12 relative to rapamycin 1 (FKBP12): ~1600 fold | EC50 (FKBP12-FRB): < 0.01 µM

CO[C@H]1C[C@@H]2CC[C@@H](C)[C@@](O)(O2)C(=O)C(=O)N2CCCC[C@H]2C(=O)O[C@H]([C@H](C)C[C@@H]2CC[C@@H](O)[C@H](OC)C2)CC(=O)[C@H](C)/C=C(\C)[C@@H](O)[C@@H](OC)C(=O)[C@H](C)C[C@H](C)/C=C/C=C/C=C/1C [compound 1, Rapamycin, reference compound]
IC50 [2]: > 1 µM | minimum inhibitory concentration (Candida albicans): 0.02 to 0.2 µg/mL
